Measurements as given in paper PMC10166890, “Screening for DAX1/EWS‐FLI1 functional inhibitors identified dihydroorotate dehydrogenase as a therapeutic target for Ewing's sarcoma” (Cancer Medicine, 2023).
Entries after “also recorded” stand apart in the source; their conditions may differ. Where two headings read alike, the source gives them in different places.

Experiments:
A‐673 cells = assay: Cell viability assay (XTT), A‐673 cells; format: cell-based, human; conditions: for GI50: Homo sapiens, A673; for Effect of DHODH overexpression on cell growth inhibitory effect in A‐673 cells: pcDNA3.1hygro(+)‐hDHODH transfected
Method: (§1) AsPC‐1, A‐673, and TC‐71 cells were seeded in 96‐well plates (800 cells/well for AsPC‐1, 2000 cells/well for A‐673, and 400 cells/well for TC‐71) and cultured overnight. Vehicle (DMSO) or a test compound diluted with the medium was then added to the wells (final DMSO concentration was 0.3%), and 72 h later, 2,3‐bis[2‐methoxy‐4‐nitro‐5‐sulfophenynl]‐2H‐tetrazolium‐5‐carboxanilide inner salt (XTT) reagent (Roche Diagnostics, Mannheim, Germany) was added to the medium. After 3‐h incubation at 37°C, the formation of the formazan dye was determined by measuring absorbance at 490 and 650 nm using a SpectraMax 340PC system (Molecular Devices, Sunnyvale, CA, USA).

DAX1 = DAX1 reporter assay (KJMGER8/pAGal9p4‐hDAX1 cells, luciferase); format: cell-based, human; conditions: for IC50: Homo sapiens; for Inhibitory effect on DAX1 reporter activity: overnight treatment
Method: pAGal9‐hDAX1 and pAPPRE×10‐Luc + were transfected into KJMGER8 cells by electroporation using a Gene Pulser (Bio‐Rad Laboratories, Hercules, CA, USA), and clones stably expressing the DAX1 and luciferase reporter genes under the control of PPRE were selected. The obtained clone was termed KJMGER8/pAGal9p4‐hDAX1. KJMGER8/pAGal9p4‐hDAX1 cells (1.8 × 10^4 cells/well) were seeded in 384‐well white plates (Greiner Japan, Tokyo, Japan) and cultured in RPMI1640‐IPTSG medium containing 10 nM 17β‐estradiol (E2; Sigma‐Aldrich), dissolved in ethanol, with test compounds at concentration ranges of 0.01 to 10,000 nM or vehicle (dimethyl sulfoxide [DMSO]). The final DMSO concentration was ≤0.3%, and the ethanol concentration was 0.1%. The next day, Blight‐Glo Luciferase Assay Reagent (Promega, Madison, WI, USA) was added to the medium. The luciferase activity was measured using a TopCount NXT system (PerkinElmer, Waltham, MA, USA). IC50 values were calculated using XLfit version 4 (ID Business Solutions, Surrey, UK).
A DAX1 reporter assay system was constructed with the estrogen‐inducible Namalwa cell (KJMGER8 cell) by co‐transfection with pAGal9‐hDAX1 and pAPPRE×10‐Luc+.[18] In the obtained cell line KJMGER8/pAGal9p4‐hDAX1, DAX1 expression is induced by E2 treatment, and the expressed DAX1 increases luciferase expression. Reporter activity was increased by E2 treatment as expected (Figure S2). […] Using this DAX1 reporter assay system, small‐molecule compounds in an in‐house library were screened to obtain DAX1 inhibitors, and K‐234 was identified (Figure 1).
pAGal9-hDAX1 and pAPPRE×10-Luc+ were transfected into KJMGER8 cells by electroporation using a Gene Pulser (Bio-Rad Laboratories, Hercules, CA, USA), and clones stably expressing the DAX1 and luciferase reporter genes under the control of PPRE were selected. The obtained clone was termed KJMGER8/pAGal9p4-hDAX1. KJMGER8/pAGal9p4-hDAX1 cells (1.8×10^4 cells/well) were seeded in 384-well white plates (Greiner Japan, Tokyo, Japan) and cultured in RPMI1640-IPTSG medium containing 10 nM 17β-estradiol (E2; Sigma-Aldrich), dissolved in ethanol, with test compounds at concentration ranges of 0.01 to 10000 nM or vehicle (dimethyl sulfoxide [DMSO]). The final DMSO concentration was ≤0.3%, and the ethanol concentration was 0.1%. The next day, Blight-Glo Luciferase Assay Reagent (Promega, Madison, WI, USA) was added to the medium. The luciferase activity was measured using a TopCount NXT system (PerkinElmer, Waltham, MA, USA). IC50 values were calculated using XLfit version 4 (ID Business Solutions, Surrey, UK)

DHODH [1] = target: T1, DHODH (Homo sapiens, UniProt Q02127); assay: DHODH inhibition assay, A‐673 mitochondria fraction (orotic acid production, LCMSMS); format: biochemical
T1 construct: The mitochondria fraction was isolated from A‐673 cells using Q proteome Mitochondria Isolation kit; endogenous in cells; host or cells: A-673 cells, mitochondria fraction
Method: The mitochondria fraction was isolated from A‐673 cells using Q proteome Mitochondria Isolation kit (QIAGEN, Hilden, Germany). The protein concentration of the fraction was determined using the DC‐protein assay kit (Bio‐Rad Laboratories, Hercules, CA, USA) with bovine serum albumin (Sigma‐Aldrich) as the standard. […] The reaction was quenched by adding 120 μL of 3 μM 5‐fluoroorotic acid acetonitrile solution. These samples were then centrifuged at 5000 g for 5 min to precipitate proteins, and the supernatant was collected. The samples were diluted 10‐fold with 70% acetonitrile‐water and subjected to liquid chromatography with tandem mass spectrometry (LCMSMS). The analyte was then separated on a hydrophilic interaction chromatography column (PC‐HILIC; 5 μm, 4.6 mm I.D. × 50 mm; Osaka Soda, Osaka, Japan). LCMSMS detection was performed by electrospray ionization in negative ion mode.

SK‐ES‐1 cells = assay: Cell viability, SK‐ES‐1 cells; format: cell-based, human; conditions: 120 h, type 2 fusion
Method: (§2) FIGURE 2 K‐234 influences the growth of Ewing's sarcoma. (A) Ewing's sarcoma‐derived A‐673 and TC‐71 cells and human pancreas adenocarcinoma‐derived AsPC‐1 cells as a control were treated with indicated concentrations of K‐234 for 72 h, and cell viability was measured. Each value represents the mean of duplicate measurements. (B) Ewing's sarcoma with type 2‐fusion gene‐derived SK‐ES‐1, RD‐ES, and MHH‐ES‐1 cells and Ewing's sarcoma with EWS‐ERG fusion gene‐derived CADO‐ES1 cells were treated with indicated concentrations of K‐234 for 120 h, and cell viability was measured. Each value represents the mean of duplicate measurements.

RD‐ES cells = assay: Cell viability, RD‐ES cells; format: cell-based, human; conditions: 120 h, type 2 fusion
Method: as §2

TC‐71 cells = assay: Cell viability assay (XTT), TC‐71 cells; format: cell-based, human; conditions: 72 h
Method: as §1

CADO‐ES1 cells = assay: Cell viability, CADO‐ES1 cells; format: cell-based, human; conditions: 120 h, EWS‐ERG fusion
Method: as §2

MHH‐ES‐1 cells = assay: Cell viability, MHH‐ES‐1 cells; format: cell-based, human; conditions: 120 h, type 2 fusion
Method: as §2

DHODH [2] = target: T2, DHODH (Rattus norvegicus, UniProt Q63707); assay: DHODH inhibition with rat liver mitochondria; format: biochemical
T2 construct: from tissue; host or cells: rat liver mitochondria

DHODH [3] = target: T3, DHODH (Mus musculus, UniProt O35435); assay: DHODH inhibition with mouse liver mitochondria; format: biochemical; conditions: mouse liver mitochondria; read-out: DHODH IC50 Mouse
T3 construct: IC50 value for the mouse liver mitochondrial fraction; from tissue; host or cells: mouse liver mitochondria

EWS‐FLI1‐related genes = assay: EWS‐FLI1‐related gene expression in A‐673 cells (RT‐qPCR); format: cell-based, human; conditions: 48 h; for Expression of DAX1, IGFBP3, and DKK1 in A‐673 cells / Effect of uridine addition on up‐regulation of DAX1, IGFBP3, and DKK1: 1000 nmol/L; for Effect of uridine addition on up‐regulation of DAX1, IGFBP3, and DKK1: uridine 100 μM
Method: Total RNA was extracted using the RNeasy Plus Mini kit (Qiagen, Valencia, CA, USA) according to the manufacturer's protocol. cDNA was synthesized from 1 μg of total RNA using a SuperScript VILO cDNA synthesis kit (Thermo Fisher Scientific). Real‐time PCR was carried out using TaqMan Fast Universal PCR Master Mix (Thermo Fisher Scientific).
FIGURE 3 EWS‐FLI1‐related gene expression after treatment with DAX1 inhibitors and knockdown of FLI1 in A‐673 cells. (A) A‐673 cells were treated with siRNA of FLI1 (siFLI‐1, siFLI‐2) or control siRNA (control siRNA1, control siRNA2) for 24 h, and EWS‐FLI1‐related genes were analyzed (details of siRNA are shown in Table S2). The gene expression was normalized by the GAPDH expression and normalized by the mean of control siRNA‐treated samples. Each bar represents the mean of duplicate measurements. (B) A‐673 cells were treated with PTC299 at 1000 nM for 48 h, and EWS‐FLI1‐related genes were analyzed. Gene expression was normalized by the GAPDH expression and by DMSO‐treated samples. Each bar represents the mean of duplicate measurements.
FIGURE 6 Influence of DHODH overexpression on Ewing's sarcoma cell growth and the EWS‐FLI1‐regulated gene expression. (A) pcDNA3.1hygro(+)‐hDHODH was transfected into A‐673 cells. The A‐673 cells with DHODH or control A‐673 cells were treated with indicated concentrations of PTC299 and KF20444 for 72 h, and cell viability was measured. Each plot represents the mean of triplicate measurements. (B) A‐673 cells with or without uridine (100 μM) were treated with indicated concentrations of PTC299 for 72 h, and cell viability was measured. Each plot represents the mean of triplicate measurements. (C) A‐673 cells with or without uridine (100 μM) were treated with PTC299 and KF20444 at 1000 nmol/L for 48 h, and the EWS‐FLI1‐related gene expression was evaluated. The expression was normalized by GAPDH and by DMSO‐treated samples. (D) KJMGER8/pAGal9p4‐hDAX1 cells with or without uridine (100 μM) were treated with indicated concentrations of PTC299 and K‐733 overnight, and the luciferase activity was measured. Each plot represents the mean of quadruplicate measurements.

[4] = 50% growth inhibition concentration, A‐673 cells
[5] = KJMGER8, Table S3, read-out: DAX1 reporter IC50
[6] = KJMGER8/pAGal9p4‐hDAX1 cells, 10 nM E2, overnight, read-out: IC50 for inhibition of DAX1 reporter activity

T1 sequence (Q02127 whole entry): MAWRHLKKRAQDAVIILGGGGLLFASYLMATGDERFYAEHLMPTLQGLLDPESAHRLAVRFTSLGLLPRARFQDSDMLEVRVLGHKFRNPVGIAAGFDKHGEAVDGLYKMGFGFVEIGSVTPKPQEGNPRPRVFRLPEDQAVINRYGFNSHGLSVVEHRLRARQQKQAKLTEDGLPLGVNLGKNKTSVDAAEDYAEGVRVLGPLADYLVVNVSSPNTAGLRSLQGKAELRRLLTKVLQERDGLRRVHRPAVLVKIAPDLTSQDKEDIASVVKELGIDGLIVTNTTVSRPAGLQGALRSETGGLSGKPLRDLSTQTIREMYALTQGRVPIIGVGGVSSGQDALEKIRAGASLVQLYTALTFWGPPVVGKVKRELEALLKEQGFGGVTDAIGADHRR
T2 sequence (Q63707 whole entry): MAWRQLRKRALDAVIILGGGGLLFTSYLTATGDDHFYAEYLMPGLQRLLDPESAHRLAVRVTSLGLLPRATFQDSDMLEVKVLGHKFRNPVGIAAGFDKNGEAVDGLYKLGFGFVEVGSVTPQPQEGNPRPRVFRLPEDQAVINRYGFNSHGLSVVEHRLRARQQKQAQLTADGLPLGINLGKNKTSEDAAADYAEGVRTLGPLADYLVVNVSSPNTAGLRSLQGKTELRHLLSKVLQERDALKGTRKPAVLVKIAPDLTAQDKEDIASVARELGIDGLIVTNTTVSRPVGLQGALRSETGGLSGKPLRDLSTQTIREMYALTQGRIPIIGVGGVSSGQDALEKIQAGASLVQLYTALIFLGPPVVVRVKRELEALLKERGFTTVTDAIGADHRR
T3 sequence (O35435 whole entry): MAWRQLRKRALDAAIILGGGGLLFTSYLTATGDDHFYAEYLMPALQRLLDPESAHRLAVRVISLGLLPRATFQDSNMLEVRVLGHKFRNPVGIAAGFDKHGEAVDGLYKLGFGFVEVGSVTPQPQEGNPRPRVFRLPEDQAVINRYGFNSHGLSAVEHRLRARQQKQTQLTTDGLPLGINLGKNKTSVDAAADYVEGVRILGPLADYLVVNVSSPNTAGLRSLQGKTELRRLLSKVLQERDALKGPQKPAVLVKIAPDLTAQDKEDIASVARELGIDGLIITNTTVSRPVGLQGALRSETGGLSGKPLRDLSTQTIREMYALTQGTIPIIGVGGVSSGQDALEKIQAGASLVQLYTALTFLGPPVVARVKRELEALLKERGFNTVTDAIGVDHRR

## CC(=O)N1CCc2c([nH]c3ccc(Br)cc23)C1c1ccccc1 (stereo not drawn) [NSC 665564]
A‐673 cells; [4]
  GI50: 119 nM
DAX1; [5]
  IC50: 666 nM
DHODH [1]; Table S3, read-out: DHODH IC50
  IC50: 3.49 nM

## O=C(Oc1ccccc1)N1CCc2c([nH]c3ccc(Cl)cc23)C1c1ccc(Cl)cc1 (stereo not drawn) [K‐234, phenyl 6‐chloro‐1‐(4‐chlorophenyl)‐1,3,4, 9‐tetrahydro‐2H‐pyrido[3,4‐b]indole‐2‐carboxylate]
SK‐ES‐1 cells
  Cell viability of SK‐ES‐1 cells: significantly reduced the viability
A‐673 cells; 72 h
  Cell viability of A‐673 cells: significantly reduced the viability
RD‐ES cells
  Cell viability of RD‐ES cells: significantly reduced the viability
TC‐71 cells
  Cell viability of TC‐71 cells: significantly reduced the viability
DAX1; [6]
  IC50: 94.5 nM
CADO‐ES1 cells
  Cell viability of CADO‐ES1 cells: significantly reduced the viability
MHH‐ES‐1 cells
  Cell viability of MHH‐ES‐1 cells: significantly reduced the viability

## O=C(O)c1c2c(nc3ccc(F)cc13)-c1ccc(-c3ccccc3F)cc1CCC2 [KF20444]
DHODH [2]
  IC50: 34.1 nM
A‐673 cells; 72 h
  Cell viability of A‐673 cells: reduced the cell viability
  Effect of DHODH overexpression on cell growth inhibitory effect in A‐673 cells: weakened; also recorded: partially attenuated
A‐673 cells; [4]
  GI50: 22.2 nM
DHODH [3]
  IC50: 6.1 nM
DAX1; [5]
  IC50: 13.2 nM
EWS‐FLI1‐related genes
  Expression of DAX1, IGFBP3, and DKK1 in A‐673 cells: up‐regulated
  Effect of uridine addition on up‐regulation of DAX1, IGFBP3, and DKK1: abrogated
DHODH [1]; Table S3, read-out: DHODH IC50
  IC50: 16.8 nM

## C/C(O)=C(\C#N)C(=O)Nc1ccc(C(F)(F)F)cc1 [Teriflunomide]
A‐673 cells; Figure 7 legend
  GI50: > 10000 nM
DAX1; [5]
  IC50: 8500 nM

## COc1ccc([C@H]2c3[nH]c4ccc(Cl)cc4c3CCN2C(=O)Oc2ccc(Cl)cc2)cc1 [PTC299, 4‐chlorophenyl (S)‐6‐chloro‐1‐(4‐methoxyphenyl)‐1,3,4,9‐tetrahydro‐2H‐pyrido[3,4‐b]indole‐2‐carboxylate]
DHODH [2]
  IC50: 1520 nM
A‐673 cells; 72 h
  Cell viability of A‐673 cells: decreased the viability
  Effect of knockdown and overexpression of DAX1 on the reduction in viability of A‐673 cells: no marked effect
  Effect of DHODH overexpression on cell growth inhibitory effect in A‐673 cells: significantly attenuated; also recorded: completely canceled
A‐673 cells; [4]
  GI50: 5.11 nM
A‐673 cells; uridine 100 μM, 72 h
  Effect of uridine addition on growth inhibitory effect in A‐673 cells: completely blocked; also recorded: completely canceled
DHODH [3]
  IC50: 103 nM
TC‐71 cells
  Cell viability of TC‐71 cells: decreased the viability
DAX1; [6]
  IC50: 33 nM
DAX1; uridine 100 μM, overnight
  Effect of uridine addition on inhibition of DAX1 reporter activity: completely abrogated
EWS‐FLI1‐related genes; 1000 nM
  DAX1 expression in A‐673 cells: slightly induced
EWS‐FLI1‐related genes
  Expression of DAX1, IGFBP3, and DKK1 in A‐673 cells: up‐regulated
  Effect of uridine addition on up‐regulation of DAX1, IGFBP3, and DKK1: abrogated
DHODH [1]; read-out: IC50 for orotic acid production through DHODH
  IC50: 4.13 nM

## CC(=O)O[C@H]1C(=O)[C@@]2(C)[C@H]([C@H](OC(=O)c3ccccc3)[C@]3(O)C[C@H](OC(=O)[C@H](O)[C@@H](NC(=O)c4ccccc4)c4ccccc4)C(C)=C1C3(C)C)[C@]1(OC(C)=O)CO[C@@H]1C[C@@H]2O [Paclitaxel]
DAX1
  Inhibitory effect on DAX1 reporter activity: did not inhibit
DAX1; listed as paclitaxel
  Inhibitory effect on DAX1 reporter activity: did not show a remarkable inhibitory effect

## Cc1c(-c2ccc(-c3ccccc3F)cc2)nc2ccc(F)cc2c1C(=O)O [Brequinar]
A‐673 cells; [4]
  GI50: 115 nM
DAX1; [5]
  IC50: 73 nM
